Experimental data taken from patent publication EP4745137A1 (Gluetacs Therapeutics (Shanghai) Co., Ltd., priority 2023, dated 2025).

How the values were obtained:
CK1α = biological target: T1, CK1α (Homo sapiens, UniProt P48729+Q96SW2); assay: Western-blot assay of substrate protein degradation in hPBMCs, CK1α; format: cell-based; details: 24 hours of compound treatment, compounds tested at 50 nM and 500 nM (concentration of the table not stated)
T1 construct: endogenous in cells; host or cells: hPBMCs (Milecell Biotechnologies)
T1 sequence (P48729 whole entry): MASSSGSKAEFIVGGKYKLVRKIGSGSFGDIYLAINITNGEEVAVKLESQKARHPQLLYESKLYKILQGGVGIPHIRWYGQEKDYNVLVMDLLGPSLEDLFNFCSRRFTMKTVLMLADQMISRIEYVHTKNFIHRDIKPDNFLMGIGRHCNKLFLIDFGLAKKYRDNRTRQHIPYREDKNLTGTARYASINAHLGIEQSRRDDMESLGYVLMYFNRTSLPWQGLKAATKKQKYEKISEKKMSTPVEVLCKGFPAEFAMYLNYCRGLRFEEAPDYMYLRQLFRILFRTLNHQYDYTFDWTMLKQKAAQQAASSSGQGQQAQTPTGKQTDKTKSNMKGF
T1 sequence (Q96SW2 whole entry): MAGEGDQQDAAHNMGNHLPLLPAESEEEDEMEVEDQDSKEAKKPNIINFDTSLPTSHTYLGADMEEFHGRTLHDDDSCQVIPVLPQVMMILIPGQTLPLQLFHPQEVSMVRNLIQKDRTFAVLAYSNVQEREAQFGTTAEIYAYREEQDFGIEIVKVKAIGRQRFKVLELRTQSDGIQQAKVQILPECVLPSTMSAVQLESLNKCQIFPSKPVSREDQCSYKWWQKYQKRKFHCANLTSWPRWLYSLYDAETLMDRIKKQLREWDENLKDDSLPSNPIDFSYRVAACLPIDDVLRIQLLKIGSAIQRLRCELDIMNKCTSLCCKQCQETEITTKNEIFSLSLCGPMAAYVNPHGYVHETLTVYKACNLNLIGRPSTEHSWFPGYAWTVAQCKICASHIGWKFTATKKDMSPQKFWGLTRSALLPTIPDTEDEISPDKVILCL
T1 sequence (Q16531 whole entry partner): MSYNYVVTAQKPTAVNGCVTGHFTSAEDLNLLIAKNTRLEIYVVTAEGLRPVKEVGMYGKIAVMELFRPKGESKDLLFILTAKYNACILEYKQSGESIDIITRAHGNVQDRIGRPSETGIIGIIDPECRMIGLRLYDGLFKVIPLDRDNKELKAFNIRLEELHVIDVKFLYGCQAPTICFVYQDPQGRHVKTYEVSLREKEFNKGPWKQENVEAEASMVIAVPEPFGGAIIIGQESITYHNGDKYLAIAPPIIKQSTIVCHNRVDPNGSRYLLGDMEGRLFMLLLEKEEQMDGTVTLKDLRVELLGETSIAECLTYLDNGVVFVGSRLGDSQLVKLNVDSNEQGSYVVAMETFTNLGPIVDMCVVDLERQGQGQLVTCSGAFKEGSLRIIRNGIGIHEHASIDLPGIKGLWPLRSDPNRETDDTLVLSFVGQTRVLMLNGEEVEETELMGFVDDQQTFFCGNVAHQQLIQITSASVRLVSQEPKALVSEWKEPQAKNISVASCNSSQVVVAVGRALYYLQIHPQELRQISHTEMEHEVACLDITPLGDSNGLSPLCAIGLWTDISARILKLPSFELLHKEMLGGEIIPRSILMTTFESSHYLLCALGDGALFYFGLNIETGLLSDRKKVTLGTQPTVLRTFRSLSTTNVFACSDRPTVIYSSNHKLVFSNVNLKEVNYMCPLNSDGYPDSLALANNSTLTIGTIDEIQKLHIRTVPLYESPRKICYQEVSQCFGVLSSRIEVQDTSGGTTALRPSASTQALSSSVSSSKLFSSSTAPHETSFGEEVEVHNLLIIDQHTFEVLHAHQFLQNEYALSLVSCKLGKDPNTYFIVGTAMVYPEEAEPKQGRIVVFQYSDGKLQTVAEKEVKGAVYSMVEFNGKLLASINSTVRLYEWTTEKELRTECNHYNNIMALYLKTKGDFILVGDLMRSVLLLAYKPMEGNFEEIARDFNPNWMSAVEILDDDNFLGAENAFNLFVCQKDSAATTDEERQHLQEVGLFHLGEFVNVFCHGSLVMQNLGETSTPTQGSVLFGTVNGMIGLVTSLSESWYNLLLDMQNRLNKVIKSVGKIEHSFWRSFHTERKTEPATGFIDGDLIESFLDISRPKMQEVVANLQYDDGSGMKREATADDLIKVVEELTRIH

IKZF1 = biological target: T2, IKZF1 (Homo sapiens, UniProt Q13422+Q96SW2); assay: Western-blot assay of substrate protein degradation in hPBMCs, IKZF1; format: cell-based; details: 24 hours of compound treatment, compounds tested at 50 nM and 500 nM (concentration of the table not stated)
T2 construct: endogenous in cells; host or cells: hPBMCs (Milecell Biotechnologies)

WEE1 = biological target: T3, WEE1 (Homo sapiens, UniProt P30291+Q96SW2); assay: Western-blot assay of substrate protein degradation in hPBMCs, WEE1; format: cell-based; details: 24 hours of compound treatment, compounds tested at 50 nM and 500 nM (concentration of the table not stated)
T3 construct: endogenous in cells; host or cells: hPBMCs (Milecell Biotechnologies)
T3 sequence (P30291 whole entry): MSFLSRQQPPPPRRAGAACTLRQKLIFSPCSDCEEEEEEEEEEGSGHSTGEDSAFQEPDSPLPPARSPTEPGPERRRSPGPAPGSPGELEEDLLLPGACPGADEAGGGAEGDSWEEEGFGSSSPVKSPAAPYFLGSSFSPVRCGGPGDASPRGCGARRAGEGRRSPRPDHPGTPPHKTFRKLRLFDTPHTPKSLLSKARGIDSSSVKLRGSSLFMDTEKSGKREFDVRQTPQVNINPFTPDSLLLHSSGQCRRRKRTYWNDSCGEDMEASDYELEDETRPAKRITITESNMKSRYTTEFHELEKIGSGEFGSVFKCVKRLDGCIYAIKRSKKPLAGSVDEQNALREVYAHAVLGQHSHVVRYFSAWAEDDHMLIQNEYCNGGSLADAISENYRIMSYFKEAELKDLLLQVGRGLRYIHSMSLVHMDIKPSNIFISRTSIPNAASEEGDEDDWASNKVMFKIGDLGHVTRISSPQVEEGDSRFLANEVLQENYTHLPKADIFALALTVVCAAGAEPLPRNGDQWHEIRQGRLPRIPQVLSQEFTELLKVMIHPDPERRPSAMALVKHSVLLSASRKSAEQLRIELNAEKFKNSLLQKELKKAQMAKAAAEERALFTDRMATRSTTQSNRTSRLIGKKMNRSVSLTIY
T3 sequence (Q96SW2 whole entry): as the sequence (Q96SW2 whole entry) above
T3 sequence (Q16531 whole entry partner): as the sequence (Q16531 whole entry partner) above

GSPT1 = biological target: T4, GSPT1 (Homo sapiens, UniProt P15170+Q96SW2); assay: Western-blot assay of substrate protein degradation in hPBMCs, GSPT1; format: cell-based; details: 24 hours of compound treatment, compounds tested at 50 nM and 500 nM (concentration of the table not stated)
T4 construct: endogenous in cells; host or cells: hPBMCs (Milecell Biotechnologies)
T4 sequence (P15170 whole entry): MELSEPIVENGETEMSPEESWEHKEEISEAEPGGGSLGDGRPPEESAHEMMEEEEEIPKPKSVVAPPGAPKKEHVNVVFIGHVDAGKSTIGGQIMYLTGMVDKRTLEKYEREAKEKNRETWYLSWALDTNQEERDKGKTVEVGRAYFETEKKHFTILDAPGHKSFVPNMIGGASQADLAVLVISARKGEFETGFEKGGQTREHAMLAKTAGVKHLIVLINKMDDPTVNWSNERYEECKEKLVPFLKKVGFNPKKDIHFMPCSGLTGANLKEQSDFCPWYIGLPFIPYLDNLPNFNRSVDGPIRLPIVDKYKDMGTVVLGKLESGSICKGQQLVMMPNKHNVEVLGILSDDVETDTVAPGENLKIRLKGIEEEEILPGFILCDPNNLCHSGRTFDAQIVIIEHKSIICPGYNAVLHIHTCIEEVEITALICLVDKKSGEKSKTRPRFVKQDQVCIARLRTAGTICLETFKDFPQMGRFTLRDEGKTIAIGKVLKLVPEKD
T4 sequence (Q96SW2 whole entry): as the sequence (Q96SW2 whole entry) above
T4 sequence (Q16531 whole entry partner): as the sequence (Q16531 whole entry partner) above

[1] = biological target: T5, human Cereblon WT GST-tagged protein (Homo sapiens, UniProt Q96SW2); assay: CRBN-binding affinity by HTRF (CEREBLON BINDING kit); details: HTRF inhibitory activity, CEREBLON BINDING kit; read-out: HTRF IC50
T5 construct: purchased CISBIO 64BDCRBNPEH
T5 sequence (Q96SW2 whole entry): as the sequence (Q96SW2 whole entry) above

IKZF3 = biological target: T6, IKZF3 (Homo sapiens, UniProt Q96SW2+Q9UKT9); assay: Western-blot assay of substrate protein degradation in hPBMCs, IKZF3; format: cell-based; details: 24 hours of compound treatment, compounds tested at 50 nM and 500 nM (concentration of the table not stated)
T6 construct: endogenous in cells; host or cells: hPBMCs (Milecell Biotechnologies)
T6 sequence (Q9UKT9 whole entry): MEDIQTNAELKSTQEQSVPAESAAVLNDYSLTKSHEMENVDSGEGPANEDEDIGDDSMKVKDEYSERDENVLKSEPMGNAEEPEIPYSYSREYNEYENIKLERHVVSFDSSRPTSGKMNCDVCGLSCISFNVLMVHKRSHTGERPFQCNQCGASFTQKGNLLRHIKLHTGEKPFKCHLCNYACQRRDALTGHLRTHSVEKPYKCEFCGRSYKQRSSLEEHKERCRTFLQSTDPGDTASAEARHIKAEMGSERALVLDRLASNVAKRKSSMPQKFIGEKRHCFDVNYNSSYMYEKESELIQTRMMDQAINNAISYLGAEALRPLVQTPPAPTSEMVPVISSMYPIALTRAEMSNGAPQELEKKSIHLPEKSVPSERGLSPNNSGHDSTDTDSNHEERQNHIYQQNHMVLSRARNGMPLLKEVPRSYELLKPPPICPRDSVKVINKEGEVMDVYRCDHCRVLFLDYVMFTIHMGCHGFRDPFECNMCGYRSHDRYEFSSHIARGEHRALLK
T6 sequence (Q96SW2 whole entry): as the sequence (Q96SW2 whole entry) above
T6 sequence (Q16531 whole entry partner): as the sequence (Q16531 whole entry partner) above

IKZF2 = biological target: T7, IKZF2 (Homo sapiens, UniProt Q96SW2+Q9UKS7); assay: Western-blot assay of substrate protein degradation in hPBMCs, IKZF2; format: cell-based; details: 24 hours of compound treatment, compounds tested at 50 nM and 500 nM (concentration of the table not stated)
T7 construct: endogenous in cells; host or cells: hPBMCs (Milecell Biotechnologies)
T7 sequence (Q9UKS7 whole entry): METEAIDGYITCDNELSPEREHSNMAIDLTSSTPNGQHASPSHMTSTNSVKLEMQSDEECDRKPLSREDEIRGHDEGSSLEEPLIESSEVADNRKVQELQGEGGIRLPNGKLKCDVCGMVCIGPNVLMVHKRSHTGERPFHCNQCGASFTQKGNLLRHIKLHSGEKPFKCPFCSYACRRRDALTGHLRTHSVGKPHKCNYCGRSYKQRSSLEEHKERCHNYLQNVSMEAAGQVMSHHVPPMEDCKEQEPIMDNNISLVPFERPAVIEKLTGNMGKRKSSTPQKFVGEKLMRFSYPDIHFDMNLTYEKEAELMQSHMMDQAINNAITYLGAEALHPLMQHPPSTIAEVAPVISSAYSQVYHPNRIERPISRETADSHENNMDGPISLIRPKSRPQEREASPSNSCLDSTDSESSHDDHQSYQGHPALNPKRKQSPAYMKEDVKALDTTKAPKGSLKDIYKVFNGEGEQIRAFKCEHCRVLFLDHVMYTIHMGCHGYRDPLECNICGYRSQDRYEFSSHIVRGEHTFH
T7 sequence (Q96SW2 whole entry): as the sequence (Q96SW2 whole entry) above
T7 sequence (Q16531 whole entry partner): as the sequence (Q16531 whole entry partner) above

| IC50 [1] | Structure (SMILES) | CK1a substrate protein remaining % (CK1α) | IKZF 1 substrate protein remaining % (IKZF1) | Weel substrate protein remaining % (WEE1) | GSPT1 substrate protein remaining % (GSPT1) | IKZF3 substrate protein remaining % (IKZF3) | IKZF2 substrate protein remaining % (IKZF2) |
| --- | --- | --- | --- | --- | --- | --- | --- |
| 0.5 to 1 µM | O=C1CCC(N2Cc3cc(CN4CCN(c5cccnc5)CC4)ccc3C2=O)C(=O)N1 (centres unmarked) [GT-04508, 3-(1-oxo-5-((4-(pyridin-3-yl)piperazin-1-yl)methyl)isoindolin-2-yl)piperidine-2,6-dione] | B (80%< substrate protein remaining %≤ 100%) | A (0% ≤ substrate protein remaining % ≤ 80%) | A (0% ≤ substrate protein remaining % ≤ 80%) | A (0% ≤ substrate protein remaining % ≤ 80%) | A (0% ≤ substrate protein remaining % ≤ 80%) | A (0% ≤ substrate protein remaining % ≤ 80%) |
| 0.5 to 1 µM | O=C1CCC(N2Cc3cc(CN4CCN(c5ccc(Cl)nc5)CC4)ccc3C2=O)C(=O)N1 (centres unmarked) [GT-04537, 3-(5-((4-(6-chloropyridin-3-yl)piperazin-1-yl)methyl)-1-oxoisoindolin-2-yl)piperidine-2,6-dione] | A (0% ≤ substrate protein remaining % ≤ 80%) | A (0% ≤ substrate protein remaining % ≤ 80%) | A (0% ≤ substrate protein remaining % ≤ 80%) | A (0% ≤ substrate protein remaining % ≤ 80%) | A (0% ≤ substrate protein remaining % ≤ 80%) | A (0% ≤ substrate protein remaining % ≤ 80%) |
| 0.5 to 1 µM | O=C1CCC(N2Cc3cc(CN4CCC(c5ccnc(F)c5F)CC4)ccc3C2=O)C(=O)N1 (centres unmarked) [GT-04556, 3-(5-((4-(2,3-difluoropyridin-4-yl)piperidin-1-yl)methyl)-1-oxoisoindolin-2-yl)piperidine-2,6-dione] | A (0% ≤ substrate protein remaining % ≤ 80%) | A (0% ≤ substrate protein remaining % ≤ 80%) | A (0% ≤ substrate protein remaining % ≤ 80%) | A (0% ≤ substrate protein remaining % ≤ 80%) | A (0% ≤ substrate protein remaining % ≤ 80%) | A (0% ≤ substrate protein remaining % ≤ 80%) |
| 1 to 1.5 µM | O=C1CCC(N2Cc3cc(CN4CCN(c5ncccc5F)CC4)ccc3C2=O)C(=O)N1 (centres unmarked) [GT-04578, 3-(5-((4-(3-fluoropyridin-2-yl)piperazin-1-yl)methyl)-1-oxoisoindolin-2-yl)piperidine-2,6-dione] | A (0% ≤ substrate protein remaining % ≤ 80%) | B (80%< substrate protein remaining %≤ 100%) | B (80%< substrate protein remaining %≤ 100%) | A (0% ≤ substrate protein remaining % ≤ 80%) | B (80%< substrate protein remaining %≤ 100%) | A (0% ≤ substrate protein remaining % ≤ 80%) |
| 1.5 to 1.9 µM | O=C1CCC(N2Cc3cc(CN4CCN(c5nccc(F)c5F)CC4)ccc3C2=O)C(=O)N1 (centres unmarked) [GT-04579, 3-(5-((4-(3,4-difluoropyridin-2-yl)piperazin-1-yl)methyl)-1-oxoisoindolin-2-yl)piperidine-2,6-dione] | A (0% ≤ substrate protein remaining % ≤ 80%) | B (80%< substrate protein remaining %≤ 100%) | B (80%< substrate protein remaining %≤ 100%) | B (80%< substrate protein remaining %≤ 100%) | B (80%< substrate protein remaining %≤ 100%) | B (80%< substrate protein remaining %≤ 100%) |
| 0.5 to 1 µM | O=C1CCC(N2Cc3cc(CN4CCN(c5ccncc5Br)CC4)ccc3C2=O)C(=O)N1 (centres unmarked) [GT-04580, 3-(5-((4-(3-bromopyridin-4-yl)piperazin-1-yl)methyl)-1-oxoisoindolin-2-yl)piperidine-2,6-dione] | A (0% ≤ substrate protein remaining % ≤ 80%) | A (0% ≤ substrate protein remaining % ≤ 80%) | A (0% ≤ substrate protein remaining % ≤ 80%) | B (80%< substrate protein remaining %≤ 100%) | A (0% ≤ substrate protein remaining % ≤ 80%) | A (0% ≤ substrate protein remaining % ≤ 80%) |

The remaining lines, values behind:

| Structure (SMILES) | IC50 [1] | CK1a substrate protein remaining % (CK1α) | IKZF 1 substrate protein remaining % (IKZF1) | Weel substrate protein remaining % (WEE1) | GSPT1 substrate protein remaining % (GSPT1) | IKZF3 substrate protein remaining % (IKZF3) | IKZF2 substrate protein remaining % (IKZF2) |
| --- | --- | --- | --- | --- | --- | --- | --- |
| O=C1CCC(N2Cc3c(CN4CCN(c5cccc(Cl)c5Cl)CC4)cccc3C2=O)C(=O)N1 (centres unmarked) [GT-04528, 3-(4-((4-(2,3-dichlorophenyl)piperazin-1-yl)methyl)-1-oxoisoindolin-2-yl)piperidine-2,6-dione] | 0.5 to 1 µM | B (80%< substrate protein remaining %≤ 100%) | B (80%< substrate protein remaining %≤ 100%) | A (0% ≤ substrate protein remaining % ≤ 80%) | B (80%< substrate protein remaining %≤ 100%) | B (80%< substrate protein remaining %≤ 100%) | B (80%< substrate protein remaining %≤ 100%) |
| Cc1cc(N2CCN(Cc3ccc4c(c3)CN(C3CCC(=O)NC3=O)C4=O)CC2)ccn1 (centres unmarked) [GT-04541, 3-(5-((4-(2-methylpyridin-4-yl)piperazin-1-yl)methyl)-1-oxoisoindolin-2-yl)piperidine-2,6-dione] | 0.5 to 1 µM | B (80%< substrate protein remaining %≤ 100%) | A (0% ≤ substrate protein remaining % ≤ 80%) | A (0% ≤ substrate protein remaining % ≤ 80%) | B (80%< substrate protein remaining %≤ 100%) | A (0% ≤ substrate protein remaining % ≤ 80%) | A (0% ≤ substrate protein remaining % ≤ 80%) |
| O=C1CCC(N2Cc3cc(CN4CCN(c5ccnc(Cl)c5Cl)CC4)ccc3C2=O)C(=O)N1 (centres unmarked) [GT-04542, 3-(5-((4-(2,3-dichloropyridin-4-yl)piperazin-1-yl)methyl)-1-oxoisoindolin-2-yl)piperidine-2,6-dione] | < 0.5 µM | B (80%< substrate protein remaining %≤ 100%) | A (0% ≤ substrate protein remaining % ≤ 80%) | A (0% ≤ substrate protein remaining % ≤ 80%) | A (0% ≤ substrate protein remaining % ≤ 80%) | A (0% ≤ substrate protein remaining % ≤ 80%) | A (0% ≤ substrate protein remaining % ≤ 80%) |
| O=C1CCC(N2Cc3cc(CN4CCN(c5ccnc(F)c5F)CC4)ccc3C2=O)C(=O)N1 (centres unmarked) [GT-04543, 3-(5-((4-(2,3-difluoropyridin-4-yl)piperazin-1-yl)methyl)-1-oxoisoindolin-2-yl)piperidine-2,6-dione] | 0.5 to 1 µM | B (80%< substrate protein remaining %≤ 100%) | A (0% ≤ substrate protein remaining % ≤ 80%) | A (0% ≤ substrate protein remaining % ≤ 80%) | A (0% ≤ substrate protein remaining % ≤ 80%) | A (0% ≤ substrate protein remaining % ≤ 80%) | A (0% ≤ substrate protein remaining % ≤ 80%) |
| O=C1CCC(N2Cc3cc(CN4CCN(c5nccc(I)c5F)CC4)ccc3C2=O)C(=O)N1 (centres unmarked) [GT-04557, 3-(5-((4-(3-fluoro-4-iodopyridin-2-yl)piperazin-1-yl)methyl)-1-oxoisoindolin-2-yl)piperidine-2,6-dione] | 0.5 to 1 µM | A (0% ≤ substrate protein remaining % ≤ 80%) | A (0% ≤ substrate protein remaining % ≤ 80%) | A (0% ≤ substrate protein remaining % ≤ 80%) | A (0% ≤ substrate protein remaining % ≤ 80%) | A (0% ≤ substrate protein remaining % ≤ 80%) | A (0% ≤ substrate protein remaining % ≤ 80%) |
